The record followed here is article PMC5218480 (PLoS ONE, 2017).

In this assay the test system is MV-4-11 cells. Kind of assay: Gene expression microarray analysis (Affymetrix PrimeView) and GSEA. In kind it is cell-based, human. The settings on record: ProbeSet 11734782_x_at; LIST D. Details: RFU PODN (11730768_x_at) / Fold change /veh PODN (11730768_x_at) / RFU LINC00158 (11744669_a_at) / Fold change /veh LINC00158 (11744669_a_at) / RFU DUSP10 (11751237_a_at) / Fold change /veh DUSP10 (11751237_a_at) / RFU ID3 (11757404_x_at) / Fold change /veh ID3 (11757404_x_at) / RFU PLEKHG5 (11737974_s_at) / Fold change /veh PLEKHG5 (11737974_s_at) / RFU LRRC4B (11730491_at) / Fold change /veh LRRC4B (11730491_at) / RFU GIMAP4 (11747438_a_at) / Fold change /veh GIMAP4 (11747438_a_at) / RFU KRT8 (11758183_x_at) / Fold change /veh KRT8 (11758183_x_at) / RFU CNN1 (11734310_a_at) / Fold change /veh CNN1 (11734310_a_at) / RFU VPS37D (11726825_at) / Fold change /veh VPS37D (11726825_at) / RFU C10orf10 (11716522_x_at) / Fold change /veh C10orf10 (11716522_x_at) / RFU KIR2DL2 /// KIR2DL4 /// KIR2DL5A /// KIR2DL5B /// KIR2DS1 /// KIR2DS2 /// KIR2DS3 /// KIR2DS4 /// KIR3DL3 /// KIR3DL3 /// KIR3DS1 (11738374_at) / Fold change /veh KIR2DL2 /// KIR2DL4 /// KIR2DL5A /// KIR2DL5B /// KIR2DS1 /// KIR2DS2 /// KIR2DS3 /// KIR2DS4 /// KIR3DL3 /// KIR3DL3 /// KIR3DS1 (11738374_at) / RFU C1QL1 (11718748_at) / Fold change /veh C1QL1 (11718748_at) / RFU TMPRSS4 (11747572_a_at) / Fold change /veh TMPRSS4 (11747572_a_at) / RFU HAMP (11756126_x_at) / Fold change /veh HAMP (11756126_x_at) / RFU RNFT2 (11725882_a_at) / Fold change /veh RNFT2 (11725882_a_at) / RFU NR4A2 (11747474_a_at) / Fold change /veh NR4A2 (11747474_a_at) / RFU ABCC12 (11746883_a_at) / Fold change /veh ABCC12 (11746883_a_at) / RFU TMEM136 (11760407_x_at) / Fold change /veh TMEM136 (11760407_x_at) / RFU CLDN22 /// WWC2 (11732394_at) / Fold change /veh CLDN22 /// WWC2 (11732394_at) / RFU HLA-DPB1 (11760878_x_at) / Fold change /veh HLA-DPB1 (11760878_x_at) / RFU SPINT1 (11716480_a_at) / Fold change /veh SPINT1 (11716480_a_at) / RFU GAP43 (11754022_s_at) / Fold change /veh GAP43 (11754022_s_at) / RFU A4GNT (11735810_at) / Fold change /veh A4GNT (11735810_at) / RFU PRB3 (11715151_x_at) / Fold change /veh PRB3 (11715151_x_at) / RFU TUBB4B (11761932_at) / Fold change /veh TUBB4B (11761932_at) / RFU CAPN14 (11732068_a_at) / Fold change /veh CAPN14 (11732068_a_at) / RFU TMCC2 (11721928_a_at) / Fold change /veh TMCC2 (11721928_a_at) / RFU IRGQ (11745062_a_at) / Fold change /veh IRGQ (11745062_a_at) / RFU FAM174B (11720279_a_at) / Fold change /veh FAM174B (11720279_a_at) / RFU TMPRSS4 (11748680_a_at) / Fold change /veh TMPRSS4 (11748680_a_at) / RFU FAM212B (11763350_a_at) / Fold change /veh FAM212B (11763350_a_at) / RFU PLEKHG5 (11743358_a_at) / Fold change /veh PLEKHG5 (11743358_a_at) / RFU ZSCAN30 (11745921_a_at) / Fold change /veh ZSCAN30 (11745921_a_at) / RFU CMKLR1 (11741424_a_at) / Fold change /veh CMKLR1 (11741424_a_at) / RFU LOC101060620 /// MAPK8IP1 (11723275_at) / Fold change /veh LOC101060620 /// MAPK8IP1 (11723275_at) / RFU SPTSSB (11747773_x_at) / Fold change /veh SPTSSB (11747773_x_at) / RFU PRSS12 (11739890_at) / Fold change /veh PRSS12 (11739890_at) / RFU BIN1 (11741810_x_at) / Fold change /veh BIN1 (11741810_x_at) / RFU WNT11 (11732464_a_at) / Fold change /veh WNT11 (11732464_a_at) / RFU C10orf10 (11716521_a_at) / Fold change /veh C10orf10 (11716521_a_at) / RFU C5orf56 (11738089_at) / Fold change /veh C5orf56 (11738089_at) / RFU CYB561 (11721691_x_at) / Fold change /veh CYB561 (11721691_x_at) / RFU ANKRD19P (11752326_a_at) / Fold change /veh ANKRD19P (11752326_a_at) / RFU OR2T12 /// OR2T33 /// OR2T8 (11738714_s_at) / Fold change /veh OR2T12 /// OR2T33 /// OR2T8 (11738714_s_at) / RFU VCAN (11748164_a_at) / Fold change /veh VCAN (11748164_a_at) / RFU JSRP1 (11732532_at) / Fold change /veh JSRP1 (11732532_at) / RFU KRTAP10-11 (11738290_x_at) / Fold change /veh KRTAP10-11 (11738290_x_at) / RFU MYO3A (11730013_a_at) / Fold change /veh MYO3A (11730013_a_at) / RFU EBF3 (11725865_a_at) / Fold change /veh EBF3 (11725865_a_at) / RFU CAMK2N1 (11719241_x_at) / Fold change /veh CAMK2N1 (11719241_x_at) / RFU C5orf56 (11738088_a_at) / Fold change /veh C5orf56 (11738088_a_at) / RFU OLFML3 (11715873_a_at) / Fold change /veh OLFML3 (11715873_a_at) / RFU LOC100653217 /// NTM (11731650_a_at) / Fold change /veh LOC100653217 /// NTM (11731650_a_at) / RFU MAPK11 (11762145_a_at) / Fold change /veh MAPK11 (11762145_a_at) / RFU FIZ1 (11724087_x_at) / Fold change /veh FIZ1 (11724087_x_at) / RFU OASL (11726364_x_at) / Fold change /veh OASL (11726364_x_at) / RFU SOX15 (11748057_x_at) / Fold change /veh SOX15 (11748057_x_at) / RFU CD79A (11719716_a_at) / Fold change /veh CD79A (11719716_a_at) / RFU HIST1H1D (11736915_at) / Fold change /veh HIST1H1D (11736915_at) / RFU CASKIN2 (11723855_a_at) / Fold change /veh CASKIN2 (11723855_a_at) / RFU LOC730098 (11760151_x_at) / Fold change /veh LOC730098 (11760151_x_at) / RFU OR4N2 (11742367_at) / Fold change /veh OR4N2 (11742367_at) / RFU PRRT2 (11749266_a_at) / Fold change /veh PRRT2 (11749266_a_at) / RFU SNX32 (11753110_a_at) / Fold change /veh SNX32 (11753110_a_at) / RFU CDHR5 (11726645_a_at) / Fold change /veh CDHR5 (11726645_a_at) / RFU RCAN1 (11760418_a_at) / Fold change /veh RCAN1 (11760418_a_at) / RFU FAM167A (11723789_a_at) / Fold change /veh FAM167A (11723789_a_at) / RFU FAM26E (11764081_at) / Fold change /veh FAM26E (11764081_at) / RFU ISYNA1 (11749810_s_at) / Fold change /veh ISYNA1 (11749810_s_at) / RFU ACY1 (11761880_at) / Fold change /veh ACY1 (11761880_at) / RFU 11764098_at / Fold change /veh 11764098_at / RFU SAMD14 (11745864_x_at) / Fold change /veh SAMD14 (11745864_x_at) / RFU NPB (11741838_a_at) / Fold change /veh NPB (11741838_a_at) / RFU TMPRSS6 (11731388_a_at) / Fold change /veh TMPRSS6 (11731388_a_at) / RFU KRTAP10-2 (11738614_at) / Fold change /veh KRTAP10-2 (11738614_at) / RFU ARHGAP8 /// PRR5-ARHGAP8 (11727945_x_at) / Fold change /veh ARHGAP8 /// PRR5-ARHGAP8 (11727945_x_at) / RFU KRTAP5-7 /// NADSYN1 (11734609_at) / Fold change /veh KRTAP5-7 /// NADSYN1 (11734609_at) / RFU RASL12 (11751679_a_at) / Fold change /veh RASL12 (11751679_a_at) / RFU CDKN2B (11736163_a_at) / Fold change /veh CDKN2B (11736163_a_at) / RFU PRF1 (11729649_at) / Fold change /veh PRF1 (11729649_at) / RFU, ZNF638 /// ZNF638-IT1 / Fold change vs veh, ZNF638 /// ZNF638-IT1 / RFU, PANK3 / Fold change vs veh, PANK3 / RFU, SH3YL1 / Fold change vs veh, SH3YL1 / RFU, ZEB2 / Fold change vs veh, ZEB2 / RFU, NRIP1 / Fold change vs veh, NRIP1 / RFU, PTTG1IP / Fold change vs veh, PTTG1IP / RFU, CAPN2 / Fold change vs veh, CAPN2 / RFU, MED14 / Fold change vs veh, MED14 / RFU, SNORA58 / Fold change vs veh, SNORA58 / RFU, C1orf63 / Fold change vs veh, C1orf63 / RFU, LRRFIP1 / Fold change vs veh, LRRFIP1 / RFU, NDUFAF7 / Fold change vs veh, NDUFAF7 / RFU, SLC12A2 / Fold change vs veh, SLC12A2 / RFU, IBTK / Fold change vs veh, IBTK / RFU, ESF1 / Fold change vs veh, ESF1 / Fold change vs veh, TMEM50B / RFU, TAOK1 / Fold change vs veh, TAOK1 / RFU, ACBD3 / Fold change vs veh, ACBD3 / RFU, TMA16 / Fold change vs veh, TMA16 / RFU, RWDD3 / Fold change vs veh, RWDD3 / RFU, BCAT1 / Fold change vs veh, BCAT1 / RFU, EDEM3 / Fold change vs veh, EDEM3 / RFU, TMEM33 / Fold change vs veh, TMEM33 / RFU, WDR75 / Fold change vs veh, WDR75 / RFU, AHCTF1 / Fold change vs veh, AHCTF1 / RFU, TFRC / Fold change vs veh, TFRC / RFU, ZDHHC17 / Fold change vs veh, ZDHHC17 / RFU, NOM1 / Fold change vs veh, NOM1 / RFU, ARL8B / Fold change vs veh, ARL8B / RFU, ZBTB11 / Fold change vs veh, ZBTB11 / RFU, TAMM41 / Fold change vs veh, TAMM41 / RFU, KIAA1704 /// LOC100996395 / Fold change vs veh, KIAA1704 /// LOC100996395 / RFU, ING1 / Fold change vs veh, ING1 / RFU, TRMT61B / Fold change vs veh, TRMT61B / RFU, FUBP3 / Fold change vs veh, FUBP3 / RFU, TP53 / Fold change vs veh, TP53 / RFU, TNKS2 / Fold change vs veh, TNKS2 / RFU, ZFP14 / Fold change vs veh, ZFP14 / RFU, ACTR2 / Fold change vs veh, ACTR2 / RFU, PPP3R1 / Fold change vs veh, PPP3R1 / RFU, PIK3R1 / Fold change vs veh, PIK3R1 / RFU, HNRNPA1 / Fold change vs veh, HNRNPA1 / RFU, RNF170 / Fold change vs veh, RNF170 / RFU, ZNF28 / Fold change vs veh, ZNF28 / RFU, RNGTT / Fold change vs veh, RNGTT / RFU, OGT / Fold change vs veh, OGT / RFU, BRD1 / Fold change vs veh, BRD1 / RFU, MARS / Fold change vs veh, MARS / RFU, ZNF655 / Fold change vs veh, ZNF655 / RFU, FAHD1 / Fold change vs veh, FAHD1 / RFU, BDP1 / Fold change vs veh, BDP1 / RFU, LRRCC1 / Fold change vs veh, LRRCC1 / RFU, ARID1A / Fold change vs veh, ARID1A / RFU, ZNF146 / Fold change vs veh, ZNF146 / RFU, ZNF330 / Fold change vs veh, ZNF330 / RFU, GPN3 / Fold change vs veh, GPN3 / RFU, C9orf123 / Fold change vs veh, C9orf123 / RFU, N4BP2L2 / Fold change vs veh, N4BP2L2 / RFU, ARFIP1 / Fold change vs veh, ARFIP1 / RFU, FAM179B / Fold change vs veh, FAM179B / RFU, BCL10 / Fold change vs veh, BCL10 / RFU, UHRF1BP1L / Fold change vs veh, UHRF1BP1L / RFU, BET1 / Fold change vs veh, BET1 / RFU, CNOT2 / Fold change vs veh, CNOT2 / RFU, ZNF268 / Fold change vs veh, ZNF268 / Fold change vs veh, ZNF507 / RFU, DGCR2 / Fold change vs veh, DGCR2 / RFU, WDSUB1 / Fold change vs veh, WDSUB1 / Fold change vs veh, HSP90B1 /// MIR3652 / RFU, ADSS / Fold change vs veh, ADSS / RFU, GK / Fold change vs veh, GK / RFU, ZNF148 / Fold change vs veh, ZNF148 / RFU, TAF9 / Fold change vs veh, TAF9 / RFU, SLC1A5 / Fold change vs veh, SLC1A5 / RFU, SLMO2 / Fold change vs veh, SLMO2 / RFU, ABCC4 / Fold change vs veh, ABCC4 / RFU, LOC101060439 /// RAP1B / Fold change vs veh, LOC101060439 /// RAP1B / RFU, RFX7 / Fold change vs veh, RFX7 / RFU, GTPBP10 / Fold change vs veh, GTPBP10 / RFU, CNEP1R1 / Fold change vs veh, CNEP1R1 / RFU, BIVM-ERCC5 /// ERCC5 / Fold change vs veh, BIVM-ERCC5 /// ERCC5 / RFU, ILF3 / Fold change vs veh, ILF3 / RFU 11762660_at / Fold change /veh 11762660_at / RFU VCAN (11757783_s_at) / Fold change /veh VCAN (11757783_s_at) / RFU DDX43 (11728927_at) / Fold change /veh DDX43 (11728927_at) / RFU KRT8 (11758188_x_at) / Fold change /veh KRT8 (11758188_x_at) / RFU NKD1 (11759106_at) / Fold change /veh NKD1 (11759106_at) / RFU SRD5A1 (11742802_a_at) / Fold change /veh SRD5A1 (11742802_a_at) / RFU TPSAB1 /// TPSB2 (11721975_s_at) / Fold change /veh TPSAB1 /// TPSB2 (11721975_s_at) / RFU GSTM3 (11746129_a_at) / Fold change /veh GSTM3 (11746129_a_at) / RFU IL23R (11737362_x_at) / Fold change /veh IL23R (11737362_x_at) / RFU TMEM51 (11727254_a_at) / Fold change /veh TMEM51 (11727254_a_at) / RFU PIWIL2 (11732686_x_at) / Fold change /veh PIWIL2 (11732686_x_at) / RFU ORM1 (11744905_x_at) / Fold change /veh ORM1 (11744905_x_at) / RFU CCDC152 (11743942_at) / Fold change /veh CCDC152 (11743942_at) / RFU ECM1 (11717891_a_at) / Fold change /veh ECM1 (11717891_a_at) / RFU IL23R (11748794_a_at) / Fold change /veh IL23R (11748794_a_at) / RFU TNFAIP8L3 (11732012_x_at) / Fold change /veh TNFAIP8L3 (11732012_x_at) / RFU MBOAT4 (11741988_at) / Fold change /veh MBOAT4 (11741988_at) / RFU 11764193_at / Fold change /veh 11764193_at / RFU TMEM53 (11763286_at) / Fold change /veh TMEM53 (11763286_at) / RFU MAGEB2 (11727129_at) / Fold change /veh MAGEB2 (11727129_at) / RFU TMEM200A (11744735_a_at) / Fold change /veh TMEM200A (11744735_a_at) / RFU CCDC152 (11751479_a_at) / Fold change /veh CCDC152 (11751479_a_at) / RFU FAM211A (11726209_a_at) / Fold change /veh FAM211A (11726209_a_at) / RFU RGS16 (11746705_a_at) / Fold change /veh RGS16 (11746705_a_at) / RFU VCAN (11755009_s_at) / Fold change /veh VCAN (11755009_s_at) / RFU RHOB (11743442_s_at) / Fold change /veh RHOB (11743442_s_at) / RFU RGS16 (11720943_a_at) / Fold change /veh RGS16 (11720943_a_at) / RFU RGS16 (11720944_at) / Fold change /veh RGS16 (11720944_at) / RFU, VPS4B / Fold change vs veh, VPS4B / RFU, CREB1 / Fold change vs veh, CREB1 / RFU, DNAJC13 / Fold change vs veh, DNAJC13 / RFU, GNAQ / Fold change vs veh, GNAQ / RFU, CDK5R1 / Fold change vs veh, CDK5R1 / RFU, ZRANB3 / Fold change vs veh, ZRANB3 / RFU, CUL4A / Fold change vs veh, CUL4A / RFU, CCNY / Fold change vs veh, CCNY / RFU, UFL1 / Fold change vs veh, UFL1 / RFU, COG3 / Fold change vs veh, COG3 / RFU, DIAPH2 / Fold change vs veh, DIAPH2 / RFU, SKA2 / Fold change vs veh, SKA2 / RFU, AFF3 / Fold change vs veh, AFF3 / RFU, LMF1 / Fold change vs veh, LMF1 / RFU, IPO11 / Fold change vs veh, IPO11 / RFU, DFFB / Fold change vs veh, DFFB / RFU, FOXP1 / Fold change vs veh, FOXP1 / RFU, CARD8 / Fold change vs veh, CARD8 / RFU, STRN3 / Fold change vs veh, STRN3 / RFU, ADK / Fold change vs veh, ADK / RFU, RASSF2 / Fold change vs veh, RASSF2 / RFU, WIPF1 / Fold change vs veh, WIPF1 / RFU, LARP1B / Fold change vs veh, LARP1B / RFU, RASA1 / Fold change vs veh, RASA1 / RFU, RB1 / Fold change vs veh, RB1 / RFU, PPFIA1 / Fold change vs veh, PPFIA1 / RFU, MAT2A / Fold change vs veh, MAT2A / RFU, CCT5 / Fold change vs veh, CCT5 / RFU, WDR92 / Fold change vs veh, WDR92 / RFU, CUX1 / Fold change vs veh, CUX1 / RFU, TTC7A / Fold change vs veh, TTC7A / RFU, TMEM135 / Fold change vs veh, TMEM135 / RFU, DEPTOR / Fold change vs veh, DEPTOR / RFU, CPM / Fold change vs veh, CPM / RFU, DNAJB6 / Fold change vs veh, DNAJB6 / RFU, CACNA2D3 / Fold change vs veh, CACNA2D3 / RFU, DTX4 / Fold change vs veh, DTX4 / RFU, TFCP2 / Fold change vs veh, TFCP2 / RFU, GMCL1 /// GMCL1P1 / Fold change vs veh, GMCL1 /// GMCL1P1 / RFU, AEBP2 / Fold change vs veh, AEBP2 / RFU, SNHG1 /// SNORD22 /// SNORD25 /// SNORD26 /// SNORD27 /// SNORD28 /// SNORD29 /// SNORD31 / Fold change vs veh, SNHG1 /// SNORD22 /// SNORD25 /// SNORD26 /// SNORD27 /// SNORD28 /// SNORD29 /// SNORD31 / Fold change (Aza/veh), C12orf56 (ProbeSet 11735607_a_at) / Fold change (ACY-1035/veh), C12orf56 (ProbeSet 11735607_a_at) / Fold change (Aza/veh), FGFR1OP (ProbeSet 11751329_s_at) / Fold change (ACY-1035/veh), FGFR1OP (ProbeSet 11751329_s_at) / Fold change (Aza/veh), VPS36 (ProbeSet 11739960_a_at) / Fold change (ACY-1035/veh), VPS36 (ProbeSet 11739960_a_at) / RFU SYPL1 (11715823_x_at) / Fold change /veh SYPL1 (11715823_x_at) / RFU IGFBP7 (11715501_s_at) / Fold change /veh IGFBP7 (11715501_s_at) / RFU REEP3 (11722064_at) / Fold change /veh REEP3 (11722064_at) / RFU IGLL1 (11728026_x_at) / Fold change /veh IGLL1 (11728026_x_at): dose or concentration left out as unconfirmed.

Structures are written as SMILES.

Consider `Nc1ncn([C@@H]2O[C@H](CO)[C@@H](O)[C@H]2O)c(=O)n1` [azacitidine], for which the “Fold change vs veh, WDR92” value was 0.69.
